Calls of active or inactive are those of the source. The calls are words filed in the database; no cut-off is given here.
Tests used:
BMDM [1] = experiment: (§1) Induction of conversion of M2-macrophages to the M1 phenotype in CM of MC38 cells treated C57BL/6 mouse BMDM cells assessed as down regulation of Chil3 mRNA expression at 30 to 100 nM preincubated with culture medium of MC38 cells for 24 hrs followed by compound addition and measured after 24 hrs by qPCR analysis; assay type: functional, cell-based; conditions: dose 30-100 nM
BMDM [2] = experiment: as §1, with “Vegf” for “Chil3”; assay type: functional, cell-based; conditions: dose 30-100 nM
BMDM [3] = experiment: as §1, with “upregulation” for “down regulation”, “[…]” for “Chil3”; assay type: functional, cell-based; conditions: dose 30-100 nM
BMDM [4] = experiment: as §1, with “upregulation” for “down regulation”, “Nos2” for “Chil3”; assay type: functional, cell-based; conditions: dose 30-100 nM
THP-1 = experiment: Induction of conversion of M2-macrophages to the M1 phenotype in CM of HCT116 cells treated […]-differentiated human THP-1 cells assessed as down regulation of Il10 mRNA expression at 30 to 100 nM incubated for 24 hrs by qPCR analysis; assay type: functional, cell-based; conditions: dose 30-100 nM
MC-38 [5] = experiment: Antiproliferative activity against mouse MC38 cells cultured with culture medium of M2-macrophages assessed as reduction in cell viability at 10 to 100 nM incubated for 24 hrs by CCK-8 assay; assay type: functional, cell-based; conditions: dose 10-100 nM
MC-38 [6] = experiment: Antitumor activity against mouse MC38 cells allografted in po dosed C57BL6 mouse assessed as inhibition of tumor growth administered daily for 2 weeks by caliper method; assay type: functional, organism-based; conditions: dose 5-20 mg/kg
Mus musculus = experiment: Toxicity in C57BL/6 mouse allografted with mouse MC38 cells assessed as weight loss at 5 to 20 mg/kg, po administered every day for 2 weeks; assay type: organism-based, MC-38; conditions: in vivo, 336 h, dose 5-20 mg/kg
MC-38 [7] = experiment: Antitumor activity against mouse MC38 cells allografted in C57BL6 mouse assessed as decrease in Retnla mRNA expression at 10 to 20 mg/kg, po administered daily for 2 weeks by qPCR analysis; assay type: functional, organism-based; conditions: dose 10-20 mg/kg
MC-38 [8] = experiment: Antitumor activity against mouse MC38 cells allografted in C57BL6 mouse assessed as increase in Tnf mRNA expression at 10 to 20 mg/kg, po administered daily for 2 weeks by qPCR analysis; assay type: functional, organism-based; conditions: dose 10-20 mg/kg
MC-38 [9] = experiment: Antitumor activity against mouse MC38 cells allografted in C57BL6 mouse assessed as increase in Il6 mRNA expression at 10 to 20 mg/kg, po administered daily for 2 weeks by qPCR analysis; assay type: functional, organism-based; conditions: dose 10-20 mg/kg
HCT-116 = experiment: Antitumor activity against human HCT-116 cells xenografted in nude BALB/c mouse assessed as reduction in tumor weight at 5 to 20 mg/kg, po administered daily for 2 weeks; assay type: functional, organism-based; conditions: dose 5-20 mg/kg

SMILES: Cc1[nH]c(/C=C2\C(=O)Nc3cc(NC(=O)Nc4cc(C(C)(C)C)on4)ccc32)c(C)c1NC(=O)CN1CCN(C)CC1
- Activity (BMDM [1]): Active
- Activity (BMDM [2]): Active
- Activity (BMDM [3]): Active
- Activity (BMDM [4]): Active
- Activity (THP-1): Active
- Activity (MC-38 [5]): Active
- Activity (MC-38 [6]): Dose-dependent effect
- Activity (Mus musculus): Non-Toxic
- Activity (MC-38 [7]): Active
- Activity (MC-38 [8]): Active
- Activity (MC-38 [9]): Active
- Activity (HCT-116): inactive
